# Data: ChEMBL document CHEMBL1201862, “PubChem BioAssay data set” (2004)
# The source made the active and inactive calls.
# Assays:
# H9c2 = test: cells; assay type: functional, cell-based; details: Rattus norvegicus, H9c2, Myocardium;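 note: confirmatory concentration-response retest of ultra-high-throughput screening hits for modulation of myocardial damage; cell death induced by hydrogen peroxide oxidative stress; compound pretreatment for 60 min then peroxide exposure for 2 h; potency is for protecting the cells against peroxide damage rather than for killing them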
# [1] = Luminescence Cell-Based Dose Confirmation HTS to Identify Activators of 5'UTR Stem-Loop Driven Alpha-Synuclein mRNA Translation in H4 Neuroglioblastoma Cells. [Related pubchem assays: 1829 (Project Summary), 1814 (Primary HTS)]; assay type: functional
# [2] = Luminescence Cell-Based Dose Response HTS to Identify Activators of Luciferase Translation or Activity in H4 […] Cells. [Related pubchem assays: 1829 (Project Summary), 1814 (Primary HTS)]; assay type: functional
# H4 = test: Luminescence Cell-Based Dose Response HTS to Identify Activators of 5'UTR Stem-Loop Driven Prion Protein mRNA Translation in H4 Neuroglioblastoma Cells. [Related pubchem assays: 1829 (Project Summary), 1814 (Primary HTS)]; assay type: functional; details: Homo sapiens
# Cytochrome P450 2C19 = Cytochrome P450 2C19 (Homo sapiens, UniProt P33261); test: Cytochrome panel assay with activity outcomes. Panel member name: p450-cyp2c19 Compounds with AC50 equal or less than 10 uM are considered active; assay type: functional
# Cytochrome P450 2C9 = Cytochrome P450 2C9 (Homo sapiens, UniProt P11712)
# [3] = molecular target: T1, RNA-binding protein pos-1 (Caenorhabditis elegans, UniProt G5EF15); test: disruptors of C. elegans POS-1 RNA interaction – biochemical, fluorescence polarization, dose response (AID 1964);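 note: purified POS-1 fused to maltose binding protein made in E. coli; potency of compounds blocking POS-1 binding to fluorescent RNA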
# T1 sequence (G5EF15 whole entry): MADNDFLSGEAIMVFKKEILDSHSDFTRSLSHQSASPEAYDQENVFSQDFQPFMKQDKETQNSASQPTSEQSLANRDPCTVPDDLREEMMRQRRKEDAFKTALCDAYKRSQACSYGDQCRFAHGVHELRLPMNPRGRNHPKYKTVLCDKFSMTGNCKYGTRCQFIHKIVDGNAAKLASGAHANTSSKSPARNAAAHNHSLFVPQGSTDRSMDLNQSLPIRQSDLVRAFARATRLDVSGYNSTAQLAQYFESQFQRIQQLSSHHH
# [4] = molecular target: T2, Zinc finger protein mex-5 (Caenorhabditis elegans, UniProt Q9XUB2); test: potency of MEX-5 RNA-binding blockers – biochemical, C. elegans, fluorescence polarization, dose response (AID 1960)
# T2 sequence (Q9XUB2 whole entry): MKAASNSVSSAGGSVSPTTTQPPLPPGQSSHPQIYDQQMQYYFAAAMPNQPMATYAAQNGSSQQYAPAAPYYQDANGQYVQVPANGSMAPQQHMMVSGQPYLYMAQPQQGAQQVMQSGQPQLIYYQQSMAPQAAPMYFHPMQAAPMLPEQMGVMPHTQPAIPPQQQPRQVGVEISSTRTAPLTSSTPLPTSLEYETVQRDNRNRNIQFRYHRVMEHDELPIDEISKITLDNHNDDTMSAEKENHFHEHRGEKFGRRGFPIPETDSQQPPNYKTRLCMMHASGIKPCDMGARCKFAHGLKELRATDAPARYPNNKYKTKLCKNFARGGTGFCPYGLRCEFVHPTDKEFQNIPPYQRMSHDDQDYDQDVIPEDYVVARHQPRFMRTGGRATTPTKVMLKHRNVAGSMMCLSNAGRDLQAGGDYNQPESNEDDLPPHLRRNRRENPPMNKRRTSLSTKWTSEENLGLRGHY
# Paired box protein Pax-8 = Paired box protein Pax-8 (Homo sapiens, UniProt Q06710); test: PAX8 transcriptional activity inhibition in RMG-I – RMG-I cells, luciferase, cherry-pick, dose response (AID 687027); assay type: functional, cell-based;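 note: luciferase reporter driven by Pax8 target thyroperoxidase promoter measured by SteadyGlo luminescence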
# [5] = molecular target: T3, Heat shock factor protein 1 (Mus musculus, UniProt P38532); test: decrease of HSF1-responsive luciferase luminescence – cell-based, NIH3T3, dose retest, confirmation (AID 2382); assay type: functional;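 note: NIH3T3 fibroblasts with HSF1-driven luciferase reporter stressed by proteasome inhibitor MG132; luminescence from HSF1-driven luciferase expression after 8 hours of MG132 stress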
# T3 sequence (P38532 whole entry): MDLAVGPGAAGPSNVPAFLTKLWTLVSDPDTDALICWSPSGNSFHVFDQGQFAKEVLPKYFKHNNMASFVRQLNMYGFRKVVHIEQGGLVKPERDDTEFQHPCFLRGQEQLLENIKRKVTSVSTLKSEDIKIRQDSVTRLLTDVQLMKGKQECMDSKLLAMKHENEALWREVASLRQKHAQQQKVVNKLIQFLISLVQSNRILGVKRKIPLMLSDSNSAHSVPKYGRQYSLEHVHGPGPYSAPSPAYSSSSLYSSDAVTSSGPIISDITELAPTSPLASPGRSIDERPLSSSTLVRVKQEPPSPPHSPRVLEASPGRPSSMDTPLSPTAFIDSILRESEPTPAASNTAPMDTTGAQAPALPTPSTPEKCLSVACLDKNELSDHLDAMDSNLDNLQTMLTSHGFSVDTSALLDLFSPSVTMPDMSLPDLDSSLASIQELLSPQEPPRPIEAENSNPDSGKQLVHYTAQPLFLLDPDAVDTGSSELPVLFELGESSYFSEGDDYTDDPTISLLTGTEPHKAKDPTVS
# Cytochrome P450 3A4 = Cytochrome P450 3A4 (Homo sapiens, UniProt P08684);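 note: CYP3A4 tested as one member of a cytochrome P450 panel screen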
# Cytochrome P450 1A2 = molecular target: T4, Cytochrome P450 1A2 (Homo sapiens, UniProt P05177);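 note: PubChem cytochrome P450 panel assay, CYP1A2 panel member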
# T4 sequence (P05177 whole entry): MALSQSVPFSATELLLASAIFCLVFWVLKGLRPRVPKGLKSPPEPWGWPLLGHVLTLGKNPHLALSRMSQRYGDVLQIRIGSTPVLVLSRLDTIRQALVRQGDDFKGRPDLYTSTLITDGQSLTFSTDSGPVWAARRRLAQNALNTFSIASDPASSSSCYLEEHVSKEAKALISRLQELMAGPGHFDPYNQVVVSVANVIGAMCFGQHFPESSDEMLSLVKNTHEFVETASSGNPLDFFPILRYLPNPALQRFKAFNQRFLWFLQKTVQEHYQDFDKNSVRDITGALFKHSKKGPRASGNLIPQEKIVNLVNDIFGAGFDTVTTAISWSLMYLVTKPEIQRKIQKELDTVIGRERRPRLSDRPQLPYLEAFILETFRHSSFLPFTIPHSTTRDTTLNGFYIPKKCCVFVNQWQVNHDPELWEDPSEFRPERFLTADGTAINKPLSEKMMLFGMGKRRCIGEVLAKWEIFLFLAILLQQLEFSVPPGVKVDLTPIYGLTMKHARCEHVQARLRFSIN
# Cytochrome P450 2D6 = Cytochrome P450 2D6 (Homo sapiens, UniProt P10635);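 note: CYP2D6 member of a cytochrome P450 panel assay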
# Sequence of Cytochrome P450 2D6 (P10635 whole entry): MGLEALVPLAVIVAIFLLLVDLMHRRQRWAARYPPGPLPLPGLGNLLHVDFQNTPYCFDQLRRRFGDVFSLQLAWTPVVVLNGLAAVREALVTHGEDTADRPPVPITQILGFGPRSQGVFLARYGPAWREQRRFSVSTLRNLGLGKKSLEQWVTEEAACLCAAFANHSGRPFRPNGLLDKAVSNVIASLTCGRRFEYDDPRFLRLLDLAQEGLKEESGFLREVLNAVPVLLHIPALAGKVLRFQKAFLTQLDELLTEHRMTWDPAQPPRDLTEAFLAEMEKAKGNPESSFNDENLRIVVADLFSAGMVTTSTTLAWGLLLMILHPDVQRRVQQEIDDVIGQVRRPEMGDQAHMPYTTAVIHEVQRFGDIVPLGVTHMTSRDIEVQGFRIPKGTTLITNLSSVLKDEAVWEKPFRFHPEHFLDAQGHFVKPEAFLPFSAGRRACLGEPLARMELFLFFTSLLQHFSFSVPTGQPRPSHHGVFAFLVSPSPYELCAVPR
# Sequence of Paired box protein Pax-8 (Q06710 whole entry): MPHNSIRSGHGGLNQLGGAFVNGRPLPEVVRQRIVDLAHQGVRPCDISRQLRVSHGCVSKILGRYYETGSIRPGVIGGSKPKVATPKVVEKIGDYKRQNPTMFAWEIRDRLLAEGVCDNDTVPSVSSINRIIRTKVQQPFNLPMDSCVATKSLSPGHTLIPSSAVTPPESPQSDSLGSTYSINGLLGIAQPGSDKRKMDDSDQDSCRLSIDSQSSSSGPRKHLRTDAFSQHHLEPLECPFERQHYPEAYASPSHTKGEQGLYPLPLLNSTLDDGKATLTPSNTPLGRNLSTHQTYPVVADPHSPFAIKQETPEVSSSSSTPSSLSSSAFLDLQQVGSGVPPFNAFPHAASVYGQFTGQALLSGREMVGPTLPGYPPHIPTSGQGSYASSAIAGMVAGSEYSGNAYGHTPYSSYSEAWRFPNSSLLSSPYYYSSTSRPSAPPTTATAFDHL
# Sequence of Cytochrome P450 2C9 (P11712 whole entry, the tested form may be a part): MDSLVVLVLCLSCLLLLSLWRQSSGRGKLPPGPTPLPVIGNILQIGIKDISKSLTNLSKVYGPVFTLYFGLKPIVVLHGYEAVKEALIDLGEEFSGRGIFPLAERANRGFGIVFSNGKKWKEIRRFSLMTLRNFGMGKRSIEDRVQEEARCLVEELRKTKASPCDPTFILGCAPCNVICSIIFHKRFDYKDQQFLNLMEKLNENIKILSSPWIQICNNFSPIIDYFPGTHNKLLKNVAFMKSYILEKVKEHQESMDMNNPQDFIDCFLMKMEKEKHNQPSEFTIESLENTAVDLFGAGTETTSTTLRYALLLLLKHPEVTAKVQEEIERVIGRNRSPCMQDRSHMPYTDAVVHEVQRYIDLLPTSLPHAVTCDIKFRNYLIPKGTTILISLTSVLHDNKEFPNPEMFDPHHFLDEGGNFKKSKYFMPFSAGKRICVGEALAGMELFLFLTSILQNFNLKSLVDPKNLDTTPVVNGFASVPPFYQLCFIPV
# Sequence of Cytochrome P450 2C19 (P33261 whole entry): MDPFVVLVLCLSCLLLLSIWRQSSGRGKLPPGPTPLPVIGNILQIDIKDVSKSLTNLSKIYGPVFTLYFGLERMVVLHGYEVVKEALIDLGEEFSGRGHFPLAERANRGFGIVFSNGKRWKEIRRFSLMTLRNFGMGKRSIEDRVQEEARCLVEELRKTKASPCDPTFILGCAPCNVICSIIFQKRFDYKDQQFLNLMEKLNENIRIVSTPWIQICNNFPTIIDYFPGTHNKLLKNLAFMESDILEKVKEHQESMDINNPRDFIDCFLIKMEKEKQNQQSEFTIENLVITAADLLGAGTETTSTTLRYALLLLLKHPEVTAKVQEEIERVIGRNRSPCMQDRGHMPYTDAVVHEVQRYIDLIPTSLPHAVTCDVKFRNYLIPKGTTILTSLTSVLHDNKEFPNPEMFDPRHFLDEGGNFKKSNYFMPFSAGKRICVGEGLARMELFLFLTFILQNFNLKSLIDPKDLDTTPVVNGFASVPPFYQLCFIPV
# Sequence of Cytochrome P450 3A4 (P08684 whole entry): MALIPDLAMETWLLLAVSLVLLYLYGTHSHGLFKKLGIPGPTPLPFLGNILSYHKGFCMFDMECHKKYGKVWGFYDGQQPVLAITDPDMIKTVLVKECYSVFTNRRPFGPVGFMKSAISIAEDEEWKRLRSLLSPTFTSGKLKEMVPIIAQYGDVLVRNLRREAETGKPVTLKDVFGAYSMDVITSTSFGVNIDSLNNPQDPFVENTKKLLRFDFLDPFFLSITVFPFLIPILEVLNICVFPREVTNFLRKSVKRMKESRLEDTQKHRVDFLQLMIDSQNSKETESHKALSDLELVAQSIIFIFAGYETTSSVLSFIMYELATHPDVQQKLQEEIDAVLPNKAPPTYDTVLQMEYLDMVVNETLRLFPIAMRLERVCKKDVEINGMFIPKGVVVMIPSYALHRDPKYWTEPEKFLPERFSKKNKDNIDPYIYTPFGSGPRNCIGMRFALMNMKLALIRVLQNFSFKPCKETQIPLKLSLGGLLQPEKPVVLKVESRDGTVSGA
compound,measurement,setting,value
NC(=O)c1oc2ccccc2c1NC(=O)c1ccco1,IC50,H9c2,17 µM (active)
Cc1ccc(Oc2nn[nH]n2)cc1,EC50,[1],> 120 µM (not active)
same,EC50,[2],> 120 µM (not active)
same,EC50,H4,> 120 µM (not active)
same,AC50,Cytochrome P450 2C19,inconclusive
same,AC50,Cytochrome P450 2C9,7.08 µM (inconclusive)
CCOC(=O)[C@@]1(C#N)C(c2ccc(Cl)c(Cl)c2)[C@H](C(N)=O)N2C=C(C(C)=O)C=C[C@H]21 (some centres undefined),EC50,[3],55.7 µM (inconclusive)
same,EC50,[4],24 µM (inconclusive)
C[C@H]1CCCCO[C@H](CN(C)S(=O)(=O)c2ccc(Cl)cc2)[C@@H](C)CN([C@@H](C)CO)C(=O)c2cc(NS(=O)(=O)c3ccc(Cl)cc3)ccc2O1,AC50,Paired box protein Pax-8,5.52 µM (active)
CCN(Cc1cc(=O)oc2cc(C)ccc12)c1ccccc1,EC50,[5],> 195 µM (not active)
CC(CN1CCOCC1)OC(=O)C(c1ccccc1)c1ccccc1 (centres undefined),EC50,[5],> 195 µM (not active)
Cc1nc2ccccc2c2c(N)c3ccccc3n12,IC50,H9c2,21.6 µM (active)
COc1cc(C2C3=C(COC3=O)OC(C)(C)Oc3cc4c(cc32)OCO4)cc(OC)c1OC (centres undefined),AC50,Paired box protein Pax-8,1.78 µM (active)
O=C(NCc1ccccc1C(F)(F)F)C12CN(Cc3ccccc3)CC1C(c1ccc([N+](=O)[O-])cc1)=NO2 (centres undefined),EC50,[5],> 195 µM (not active)
COc1cc(-c2cnc3c(NC=O)cc(-c4cccnc4)cn23)cc(OC)c1OC,IC50,H9c2,22.4 µM (active)
Cc1ccc(C(c2c(C)n(C)n(-c3ccccc3)c2=O)c2c(C)n(C)n(-c3ccccc3)c2=O)s1,IC50,H9c2,> 79 µM (inactive)
O=C(CC(=O)c1ccccc1[N+](=O)[O-])c1ccccc1,EC50,[5],> 195 µM (not active)
CCn1c(O)cc(=O)nc1SCC(=O)N1CCOCC1,EC50,[5],> 195 µM (not active)
O=C(Oc1cc(=O)oc2c1c(=O)n1c3c(cccc23)CC1)c1ccc(F)cc1,EC50,[5],22.2 µM (active)
COc1ccc(N(CC(=O)NCc2ccc(F)cc2)C(=O)Cn2nnc(-c3ccc(C)o3)n2)cc1OC,EC50,[5],> 195 µM (not active)
COc1ccc(CNC(=O)COC(=O)c2cc(-c3ccc(Cl)s3)nc3ccccc23)cc1,EC50,[3],92.1 µM (active)
same,EC50,[4],58.6 µM (active)
CN1CCC(N(C)C(=O)CCc2nc(O)c3ccccc3n2)CC1,IC50,H9c2,> 79 µM (inactive)
same,AC50,Cytochrome P450 3A4,28.2 µM (inconclusive)
O=C(c1ccco1)N1CCN(Cc2nc3ccc([N+](=O)[O-])cc3c(=O)n2-c2ccccc2F)CC1,IC50,H9c2,27.6 µM (active)
COc1cc(C2C(C#N)=C(N)OC3=C2C(=O)CCC3)ccc1OC(=O)N1CCOCC1 (centres undefined),EC50,[3],> 300 µM (not active)
same,EC50,[4],> 300 µM (not active)
O=C(CSCc1cccc(F)c1)N1CCN(c2ccccc2)CC1,EC50,[1],0.47 µM (active)
same,EC50,[2],6.73 µM (active)
same,EC50,H4,> 120 µM (not active)
C[C@@H]1CN([C@H](C)CO)C(=O)c2cc(NC(=O)c3ccncc3)ccc2O[C@@H](C)CCCCO[C@H]1CN(C)Cc1ccc(C(F)(F)F)cc1,AC50,Paired box protein Pax-8,12 µM (active)
Nc1cc2nc(O)c3ccccc3c2cc1Br,IC50,H9c2,> 79 µM (inactive)
Clc1ccc(-c2csc(N3CCC(c4ccccc4)C3)n2)cc1 (centres undefined),EC50,[1],18.5 µM (active)
same,EC50,[2],25.7 µM (active)
same,EC50,H4,31.5 µM (active)
CSc1ccccc1NC(=O)c1cc(-c2cccs2)on1,EC50,[1],55.7 µM (active)
same,EC50,[2],> 120 µM (not active)
same,EC50,H4,17.9 µM (active)
Cc1ccc(-c2nnc(O)c3ccccc23)cc1S(=O)(=O)NCCO,IC50,H9c2,> 79 µM (inactive)
COc1c(C)cc(Br)cc1C(=O)Nc1cccc(-c2nc3ncccc3o2)c1,IC50,H9c2,> 79 µM (inactive)
O=c1c2ccccc2nc2c3ccccc3c(NCCO)nn12,IC50,H9c2,20.2 µM (active)
Cc1ccc(-c2ccccc2)n1-c1cccc(C(=O)O)c1,EC50,[3],109 µM (active)
same,EC50,[4],> 300 µM (not active)
COC/C=C/C1=CC2=CC(=O)C(C)(OC(=O)c3cccs3)C(=O)C2=CO1 (centres undefined),EC50,[3],> 300 µM (not active)
same,EC50,[4],51.8 µM (active)
COc1cccc(-c2cnc3c(NC=O)cc(-c4ccc(OC)cc4OC)cn23)c1,AC50,Paired box protein Pax-8,2.93 µM (active)
N#CC(c1nc2ccccc2nc1OCCO)S(=O)(=O)c1ccccc1 (centres undefined),EC50,[3],> 300 µM (not active)
same,EC50,[4],142 µM (inconclusive)
CC(=O)c1cccc(NC(=O)C(C)OC(=O)Cc2nnc(O)c3ccccc23)c1 (centres undefined),IC50,H9c2,> 79 µM (inactive)
COC(=O)c1ccc(C2OCC(C)(C)CO2)cc1,EC50,[1],> 120 µM (not active)
same,EC50,[2],35.1 µM (active)
same,EC50,H4,24.9 µM (active)
CC(C)c1ccc(C2C(C#N)=C(N)N3C(=C2C#N)Sc2ccccc23)cc1 (centres undefined),EC50,[3],33 µM (inconclusive)
same,EC50,[4],61.3 µM (active)
same,AC50,Cytochrome P450 2C19; read-out: AC50,14.1 µM (inconclusive)
same,AC50,Cytochrome P450 1A2,25.1 µM (inconclusive)
same,AC50,Cytochrome P450 2C9,10 µM (inconclusive)
COC(=O)c1ccc(C)c(-n2c(C)cc(C=O)c2C)c1,EC50,[3],> 300 µM (not active)
same,EC50,[4],> 300 µM (not active)
COc1ccc(CC(=O)NCC2CCCN(Cc3ccccc3Cl)C2)cc1 (centres undefined),EC50,[5],> 195 µM (not active)
Brc1cc2c(cc1/C=N/Nc1nc(N3CCCC3)nc(N3CCOCC3)n1)OCO2,IC50,H9c2,> 79 µM (inactive)
same,AC50,Cytochrome P450 2D6,28.2 µM (inconclusive)
same,AC50,Cytochrome P450 1A2,15.8 µM (inconclusive)
O=[N+]([O-])c1ccccc1S(=O)(=O)n1nnc2ccccc21,EC50,[3],> 300 µM (not active)
same,EC50,[4],> 300 µM (not active)
C/C(=N/C1CC1)C1=C(O)c2ccccc2C1=O,EC50,[1],> 120 µM (not active)
same,EC50,[2],20.2 µM (active)
same,EC50,H4,6.75 µM (active)
CC(C)OC(=O)CC(=O)c1sc2nc3c(cc2c1N)CN(C)CC3,EC50,[3],> 300 µM (not active)
same,EC50,[4],19.3 µM (inconclusive)
CC1CCCN(C(=O)C2CCN(S(=O)(=O)c3ccc4c(c3)CC(C)N4C(=O)C3CC3)CC2)C1 (centres undefined),EC50,[5],> 195 µM (not active)
C[C@@H]1CN([C@@H](C)CO)C(=O)c2cc(NS(=O)(=O)c3ccc(F)cc3)ccc2O[C@@H](C)CCCCO[C@H]1CN(C)Cc1ccc(C(F)(F)F)cc1,AC50,Paired box protein Pax-8,7.5 µM (active)
Cc1ccc(CO/N=C/c2c(O)cc(C)oc2=O)cc1,EC50,[5],> 195 µM (not active)
CCC(=O)Nc1c(-c2ccc(Cl)cc2)c(=O)c2ccccc2n1C,EC50,[5],> 195 µM (not active)
